Test results published in US11702428B2, “Chemical compounds as inhibitors of interleukin-1 activity” (Genentech, Inc., priority 2017, dated 2023).
Read-outs that look alike come from different tables or passages of the source.

How the values were obtained:
[1] = system: LPS and nigericin stimulated cells; test: cells; assay type: cell-based; settings: LPS and nigericin stimulated cells, CellTiter-Glo; for IC50: Homo sapiens, read-out: CTG protective IC50
Protocol: Viability of compound treated cells is measured using CellTiter-Glo® assay (Promega, Madison, Wis.) that measures the ATP content of cells which is proportional to the number of live cells within a well. This is a counter-screen to establish that the reduction of IL-1β levels in LPS and nigericin stimulated and compound treated cells is not due to cytotoxicity, but rather through the inhibition of the inflammasome pathway. Compounds inhibiting NRLP3 inflammasome activation ultimately increase the viability of LPS and nigericin stimulated cells by blocking NLRP3 mediated pyroptosis that would otherwise lead to cell lysis.

NLRP3 inflammasome = NLRP3 inflammasome (Homo sapiens, UniProt Q96P20); test: NLRP3 inflammasome activation assay in PBMCs (LPS priming, nigericin), IL-1β by ELISA; assay type: cell-based; design: Human peripheral blood mononuclear cells (PBMCs); host or cells: primary human PBMCs from healthy donors; settings: LPS, nigericin; for IC50: read-out: PBMC IL-1β IC50
Sequence of NLRP3 inflammasome (Q96P20 whole entry): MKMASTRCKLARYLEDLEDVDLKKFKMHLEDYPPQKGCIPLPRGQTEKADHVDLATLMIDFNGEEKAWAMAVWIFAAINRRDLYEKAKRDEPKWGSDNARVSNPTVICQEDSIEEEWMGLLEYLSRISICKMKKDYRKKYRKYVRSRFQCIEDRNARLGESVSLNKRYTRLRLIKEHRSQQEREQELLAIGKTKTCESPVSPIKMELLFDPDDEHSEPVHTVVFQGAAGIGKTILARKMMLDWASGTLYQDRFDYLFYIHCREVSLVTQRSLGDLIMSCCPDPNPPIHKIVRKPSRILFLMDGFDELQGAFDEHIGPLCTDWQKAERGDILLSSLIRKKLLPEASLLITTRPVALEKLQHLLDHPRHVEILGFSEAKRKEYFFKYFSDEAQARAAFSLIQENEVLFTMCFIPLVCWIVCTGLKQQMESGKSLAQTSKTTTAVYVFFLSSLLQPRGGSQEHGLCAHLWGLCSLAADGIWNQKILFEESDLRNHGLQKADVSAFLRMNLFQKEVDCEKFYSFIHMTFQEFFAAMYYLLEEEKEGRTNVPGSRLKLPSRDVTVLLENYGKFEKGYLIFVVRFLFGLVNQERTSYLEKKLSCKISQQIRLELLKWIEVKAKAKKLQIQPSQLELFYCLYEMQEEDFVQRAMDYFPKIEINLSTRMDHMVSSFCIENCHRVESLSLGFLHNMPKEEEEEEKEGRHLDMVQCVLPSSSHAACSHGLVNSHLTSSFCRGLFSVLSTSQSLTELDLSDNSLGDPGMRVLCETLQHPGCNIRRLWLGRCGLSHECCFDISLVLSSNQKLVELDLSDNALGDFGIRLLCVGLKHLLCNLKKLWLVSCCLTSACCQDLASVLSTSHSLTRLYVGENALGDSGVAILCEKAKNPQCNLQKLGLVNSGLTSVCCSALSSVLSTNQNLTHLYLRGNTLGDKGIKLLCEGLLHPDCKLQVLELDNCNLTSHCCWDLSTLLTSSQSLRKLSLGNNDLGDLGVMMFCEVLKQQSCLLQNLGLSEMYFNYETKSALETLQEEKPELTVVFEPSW
Protocol: Some of the following assays were used to determine the inhibitory activity of the compounds on the NLRP3 inflammasome using a common inflammasome activation stimuli-nigericin.
Human peripheral blood mononuclear cells (PBMCs), consisting of lymphocytes (T, B and NK cells), monocytes and dendritic cells, were freshly isolated from human peripheral blood from healthy donors. Cells were obtained through an IRB approved donor program by iXCells Biotechnologies where all the donors were tested for bacterial and viral infections. Cells were purified from peripheral blood using ficoll gradient centrifugation.
Cells were then stimulated with 10 uM Nigericin (Sigma Aldrich; InvivoGen) for 1.5 h. Plates were centrifuged at 1,500 rpm for 3 minutes to pellet cells and supernatant was transferred into new plates for subsequent experiments.
For ELISA assays cells were seeded into 96-well plates. Post study, supernatants were removed and the levels of mature IL-1β, IL-18 and TNFα (Quantikine ELISA, R&D systems) were measured in cell conditioned media by ELISA according to manufacturer's instructions.

Pharmacokinetics in mice = assay type: in vivo, CD-1 Mice; settings: Female CD-1 Mice; for AUC(0-t): read-out: AUC 0-24 hr
Protocol: The intravenous dosing solutions were administered at 1 mg/kg and were made by dissolving the test article into the formulations shown below. The oral dosing suspensions or solutions were administered at 10 mg/kg and were made by dissolving the test article in the formulations shown below. Blood samples were collected into tubes containing either K2EDTA or sodium heparin and kept chilled on ice block or wet ice immediately following collection and during processing. After centrifugation, the resulting plasma samples were stored in a freezer at −80° C. until samples were analyzed. Pharmacokinetic parameters were determined following measurement of compound concentrations in plasma using standard bioanalytical methods at timepoints ranging from 0 to 24 hours.

[2] = mouse, plasma, PO, 10 mg/kg, 0.5% MC, 0.25% Tween 80

| Structure (SMILES) | IC50 [1] [nM] | IC50 (NLRP3 inflammasome) [nM] | also measured |
| --- | --- | --- | --- |
| COC1(C)COc2c(S(=O)(=O)NC(=O)Nc3c4c(cc5c3CCC5)CCC4)cnn2C1 (stereo not shown) | 100 to 1000 | 100 to 1000 |  |
| CC[C@H]1COc2c(S(=O)(=O)NC(=O)Nc3c4c(cc5c3CCC5)CCC4)cnn2C1 | < 100 | < 100 |  |
| O=C(Nc1c2c(cc3c1CCC3)CCC2)NS(=O)(=O)c1cnn2c1OCC2 | < 100 | 100 to 1000 |  |
| CNCC1COc2c(S(=O)(=O)NC(=O)Nc3c4c(cc5c3CCC5)CCC4)cnn2C1 (stereo not shown) | 1000 to 10000 | 1000 to 10000 |  |
| CC[C@@H]1COc2c(S(=O)(=O)NC(=O)Nc3c4c(cc5c3CCC5)CCC4)cnn2C1 | 100 to 1000 | 100 to 1000 |  |
| NC1COc2c(S(=O)(=O)NC(=O)Nc3c4c(cc5c3CCC5)CCC4)cnn2C1 (stereo not shown) | < 100 | 100 to 1000 |  |
| C[C@@H]1COc2c(S(=O)(=O)NC(=O)Nc3c4c(cc5c3CCC5)CCC4)cnn2C1 | < 100 | < 100 |  |
| C#CCOC1COc2c(S(=O)(=O)NC(=O)Nc3c4c(cc5c3CCC5)CCC4)cnn2C1 (stereo not shown) | < 100 | < 100 |  |
| Cc1ccc2cccnc2c1NC(=O)NS(=O)(=O)c1cnn2c1OCCC2 |  |  | CTG protective IC50 [1]: No Curve; PBMC IL-1β IC50 (NLRP3 inflammasome): No Curve |
| O=C(Nc1c2c(cc3c1CCC3)CCC2)NS(=O)(=O)c1cnn2c1C(F)(F)CCC2 | > 10000 | 100 to 1000 |  |
| CC(C)c1cc(F)cc(C(C)C)c1NC(=O)NS(=O)(=O)c1cnn2c1OCCC2 | 100 to 1000 | 100 to 1000 |  |
| O=C(Nc1c2c(cc3c1CCC3)CCC2)NS(=O)(=O)c1cnn2c1OCCCC2 [drawing 515] | < 100 | < 100 |  |
| O=C(Nc1c2c(cc3c1CCC3)CCC2)NS(=O)(=O)c1cnn2c1OCC(F)C2 (stereo not shown) [drawing 517] | < 100 | 100 to 1000 |  |
| CC1CCOc2c(S(=O)(=O)NC(=O)Nc3c4c(cc5c3CCC5)CCC4)cnn21 (stereo not shown) [drawing 516] | < 100 | < 100 |  |
| O=C(Nc1c2c(cc3c1CCC3)CCC2)NS(=O)(=O)c1ncn2c1OCCC2 | 100 to 1000 | 100 to 1000 |  |
| CN(CC1COc2c(S(=O)(=O)NC(=O)Nc3c4c(cc5c3CCC5)CCC4)cnn2C1)C(=O)OC(C)(C)C (stereo not shown) | 100 to 1000 | 100 to 1000 |  |
| O=C(Nc1c2c(cc3c1CCC3)CCC2)NS(=O)(=O)c1cnn2c1OCC(N1CC(F)C1)C2 (stereo not shown) | < 100 | 100 to 1000 |  |
| O=C(Nc1c(C2CC2)cc(Cl)c2c1CCC2)NS(=O)(=O)c1cnn2c1OCCC2 | 1000 to 10000 | 100 to 1000 |  |
| Cc1nn2c(c1S(=O)(=O)NC(=O)Nc1c3c(cc4c1CCC4)CCC3)OCCC2 | < 100 | 100 to 1000 |  |
| CCO[C@@H]1COc2c(S(=O)(=O)NC(=O)Nc3c4c(cc5c3CCC5)CCC4)cnn2C1 | 100 to 1000 | 100 to 1000 |  |
| CN[C@H]1COc2c(S(=O)(=O)NC(=O)Nc3c4c(cc5c3CCC5)CCC4)cnn2C1 [D] |  |  | Bioavailability (% F) (Pharmacokinetics in mice; PO, 10 mg/kg, 0.5% MC, 0.25% Tween 80): 69 % F; Cmax (Pharmacokinetics in mice; mouse, plasma, IV, 1 mg/kg): 3310 ng/mL; clearance (Pharmacokinetics in mice; mouse, plasma, IV, 1 mg/kg): 5 mL/min/kg; half-life (Pharmacokinetics in mice; mouse, plasma, IV, 1 mg/kg): 96 min; AUC(0-t) (Pharmacokinetics in mice; mouse, plasma, IV, 1 mg/kg): 3400 ng·h/mL; Vd (Pharmacokinetics in mice; mouse, plasma, IV, 1 mg/kg, read-out: Vz): 0.69 L/kg; Cmax (Pharmacokinetics in mice; [2]): 13700 ng/mL; half-life (Pharmacokinetics in mice; [2]): 102 min; AUC(0-t) (Pharmacokinetics in mice; [2]): 23500 ng·h/mL |
